Results from patent publication US4341895A (priority 1981, dated 1982).

Tests used:
[1] = Straub Tail observation; assay type: in vivo; settings: mouse, s.c.; for locomotor activity (footnote i to Straub Tail): at 75 mg/kg (R = C2 H5 COO) or 30 & 60 mg/kg (R = C2 H5 CO)
Excerpt: (§1) The compounds of formula I and their acid-addition salts are useful as analgesic agents, as determined by standard tests performed on the compounds of formula I where R is ethoxycarbonyl and propionyl in the form of their p-toluenesulfonate salts.
(§2) ^a All activities are expressed in mg/kg s.c., free base.

[2] = test system: ACh; test: ACh (acetylcholine) analgesic test, procedure of Collier et al.; assay type: in vivo; settings: sc; mouse, as free base; range in parentheses; tested as p-toluenesulfonate salt
Excerpt: as §1, §2
^e Procedure (in mouse) of H.O.J. Collier, L. C. Dineen, C. A. Johnso
and C. Schneider, Br. J. Pharmacol. Chemother. 32, 295 (1968).

[3] = Tail Flick (analgesic agonist activity); assay type: in vivo; settings: sc; rat, as free base; tested as p-toluenesulfonate salt
[4] = test system: phenazocine; test: Antagonist activity vs. phenazocine; assay type: in vivo; settings: rat, s.c., as free base; doses in parentheses; tested as p-toluenesulfonate salt
[5] = test system: Bradykinin; test: Bradykinin analgesic test; assay type: in vivo; settings: rat
Excerpt: as §1, §2
^f G. Deffenu, L. Pegrassi and B. Lumachi, J. Pharm. Pharmacol. 18,
135 (1966); B. A. Berkowitz and E. L. Way, J. Pharmacol. Exp. Ther. 177,

[6] = in vivo; cited from earlier work

Row | Structure (SMILES) | locomotor activity (footnote i to Straub Tail) [1] | ED50 [2] [mg/kg] | ED50 [3] [mg/kg] | Antagonist activity vs. phenazocine [4] | Straub Tail (dose) ([1]; as free base, tested as p-toluenesulfonate salt) [mg/kg] | depression (footnote h to Bradykinin ED50) ([5]; 10 mg/kg s.c.) | depression (footnote h to Bradykinin ED50) ([5]; 20 and 30 mg/kg s.c.) | ED50 ([5]; sc, as free base, range in parentheses, tested as p-toluenesulfonate salt) [mg/kg] | analgesic activity [6]
1 | CCC(=O)N1[C@@H]2CC[C@H]1[C@H](O)[C@@H](NCc1ccccc1)C2 (relative stereo) [I (R = C2 H5 CO), 3α-Benzylamino-8-propionyl-1αH,5αH-nortropan-2β-ol] | Increased locomotor activity | 16 | 44 ± 3.5 | inactive (10) | – | – | – | – | –
2 | CCOC(=O)N1[C@@H]2CC[C@H]1[C@H](O)[C@@H](NCc1ccccc1)C2 (relative stereo) [I (R = C2 H5 COO), Ethyl 3α-benzylamino-2β-hydroxy-1αH,5αH-nortropane-8-carboxylate] | Increased locomotor activity | 6.9 | 56 ± 4 | inactive (10 & 80) | 75 | Mild depression | depression | 21 | –
3 | CN1[C@@H]2CC[C@H]1CC(C(=O)O)(c1ccccc1)C2 (stereo partly shown) [3-phenyl-3-carboxytropane] | – | – | – | – | – | – | – | – | reported to have analgesic activity
